Earlier results, collected in patent US20220142893A1, “THE PROCESS OF DYEING KERATINOUS MATERIAL COMPRISING THE USE OF AN ORGANOSILICON COMPOUND, TWO COLOR-IMPARTING COMPOUNDS AND A FILM-FORMING POLYMER” (Henkel AG & Co. KGaA, priority 2019, published 2022).

Settings: 25° C.

Row | Structure (SMILES) | solubility in water | solubility in water (in words)
1 | Nc1cc(S(=O)(=O)[O-])cc2cc(S(=O)(=O)[O-])c(N=Nc3ccccc3)c(O)c12.[Na+].[Na+] [Acid Red 33, disodium salt of 5-amino-4-hydroxy-3-(phenylazo)-naphthalene-2,7-disulphonate] | 2500 µg/mL | –
2 | O=C([O-])c1c(Cl)c(Cl)c(Cl)c(Cl)c1-c1c2c(Br)cc(=O)c(Br)c-2oc2c(Br)c(O)cc(Br)c12.O=C([O-])c1c(Cl)c(Cl)c(Cl)c(Cl)c1-c1c2c(Br)cc(=O)c(Br)c-2oc2c(Br)c(O)cc(Br)c12.[Na+].[Na+] [Acid Red 92, disodium salt of 3,4,5,6-tetrachloro-2-(1,4,5,8-tetrabromo-6-hydroxy-3-oxoxanthen-9-yl)benzoic acid] | greater than 10 g/L | –
3 | O=C([O-])C1=NN(c2ccc(S(=O)(=O)[O-])cc2)C(=O)C1N=Nc1ccc(S(=O)(=O)[O-])cc1.[Na+].[Na+].[Na+] (stereo not shown) [Acid Yellow 23, trisodium salt of 4,5-dihydro-5-oxo-1-(4-sulfophenyl)-4-((4-sulfophenyl)azo)-1H-pyrazole-3-carboxylic acid] | – | highly soluble
4 | O=S(=O)([O-])c1ccc(N=Nc2c(O)ccc3ccccc23)cc1.[Na+] [Acid Orange 7, sodium salt of 4-[(2-hydroxy-1-naphthyl)azo]benzene sulphonate] | more than 7 g/L | –
